Reference: PubChem BioAssay AID252 (DTP/NCI, 2004)
Where “and” joins values, the source holds several entries; their conditions need not be identical. Identical values can stand only once. Inconclusive results and toxic doses are left out.

System: BDF1 mice, intracerebral L1210 leukemia, survival T/C
Test: NCI In Vivo Anticancer Drug Screen. Data for tumor model L1210 Leukemia (intracerebral) in B6D2F1 (BDF1) mice
Conditions: higher = longer survival
Procedure, shortened: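 Transplantable tumour-bearing mice, compound-treated vs vehicle controls; read-out survival, reported as T/C ratio.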

[1] = endpoint: mean survival time, dose: 1.0 mg/kg/injection, schedule: Q01DX005 (ip), vehicle: saline
[2] = endpoint: mean survival time, dose: 1.0 mg/kg/injection, schedule: Q01DX009 (ip), vehicle: saline
[3] = endpoint: mean survival time, dose: 2.0 mg/kg/injection, schedule: Q01DX005 (ip), vehicle: saline
[4] = endpoint: mean survival time, dose: 2.0 mg/kg/injection, schedule: Q01DX009 (ip), vehicle: saline
[5] = endpoint: mean survival time, dose: 2.0 mg/kg/injection, schedule: Q04DX003 (ip), vehicle: saline
[6] = endpoint: mean survival time, dose: 4.0 mg/kg/injection, schedule: Q01DX005 (ip), vehicle: saline
[7] = endpoint: mean survival time, dose: 4.0 mg/kg/injection, schedule: Q04DX003 (ip), vehicle: saline
[8] = endpoint: mean survival time, dose: 8.0 mg/kg/injection, schedule: Q04DX003 (ip), vehicle: saline

`COc1cccc2c1C(=O)c1c(O)c3c(c(O)c1C2=O)C[C@@](O)(C(=O)CO)C[C@@H]3OC1CC(N)C(O)C(C)O1` (some centres undefined) was tested, and the T/C (endpoint: mean survival time, dose: 0.05 mg/kg/injection, schedule: Q03HX024 (ip), vehicle: saline) was 106 % of control, the T/C (endpoint: mean survival time, dose: 0.1 mg/kg/injection, schedule: Q03HX024 (ip), vehicle: saline) was 103 % of control and the T/C (endpoint: mean survival time, dose: 0.2 mg/kg/injection, schedule: Q03HX024 (ip), vehicle: saline) was 100 % of control. For the same molecule, the T/C (endpoint: mean survival time, dose: 0.4 mg/kg/injection, schedule: Q03HX024 (ip), vehicle: saline) was 102 % of control, the T/C (endpoint: mean survival time, dose: 0.5 mg/kg/injection, schedule: Q01DX005 (ip), vehicle: saline) was 104 % of control and the T/C (endpoint: mean survival time, dose: 0.5 mg/kg/injection, schedule: Q01DX009 (ip), vehicle: saline) was 101 % of control. For the same molecule, the T/C (endpoint: mean survival time, dose: 0.5 mg/kg/injection, schedule: Q04DX003 (ip), vehicle: saline) was 105 % of control, the T/C (endpoint: mean survival time, dose: 0.8 mg/kg/injection, schedule: Q03HX024 (ip), vehicle: saline) was 101 % of control and the T/C [1] was 104 % of control. The T/C [2] was 102 % of control, the T/C (endpoint: mean survival time, dose: 1.0 mg/kg/injection, schedule: Q04DX003 (ip), vehicle: saline) was 102 % of control and the T/C [3] was 107 % of control. For the same molecule, the T/C [4] was 101 % of control, the T/C [5] was 101 % of control and the T/C [6] was 106 % of control. The T/C [7] was 108 % of control and the T/C [8] was 100 % of control.
In the case of `CC[C@H]1CN2CCc3cc(OC)c(OC)cc3[C@@H]2C[C@@H]1C[C@H]1NCCc2cc(OC)c(OC)cc21`, the T/C [1] is reported as 101 % of control, the T/C [2] is reported as 100 % of control and the T/C [3] is reported as 100 % of control. For the same molecule, the T/C [4] was 98 % of control, the T/C [5] was 101 % of control and the T/C [6] was 98 % of control. For the same molecule, the T/C (endpoint: mean survival time, dose: 4.0 mg/kg/injection, schedule: Q01DX009 (ip), vehicle: saline) was 101 % of control, the T/C [7] was 101 % of control and the T/C (endpoint: mean survival time, dose: 4.0 mg/kg/injection, schedule: Q08DX002 (ip), vehicle: saline) was 100 % of control. For the same molecule, the T/C (endpoint: mean survival time, dose: 8.0 mg/kg/injection, schedule: Q01DX005 (ip), vehicle: saline) was 98 % of control, the T/C (endpoint: mean survival time, dose: 8.0 mg/kg/injection, schedule: Q01DX009 (ip), vehicle: saline) was 100 % of control and the T/C [8] was 96 % of control. For the same molecule, the T/C (endpoint: mean survival time, dose: 8.0 mg/kg/injection, schedule: Q08DX002 (ip), vehicle: saline) was 97 % of control, the T/C (endpoint: mean survival time, dose: 16.0 mg/kg/injection, schedule: Q01DX005 (ip), vehicle: saline) was 87 % of control and the T/C (endpoint: mean survival time, dose: 16.0 mg/kg/injection, schedule: Q04DX003 (ip), vehicle: saline) was 104 % of control. The T/C (endpoint: mean survival time, dose: 16.0 mg/kg/injection, schedule: Q08DX002 (ip), vehicle: saline) was 100 % of control, the T/C (endpoint: mean survival time, dose: 32.0 mg/kg/injection, schedule: Q04DX003 (ip), vehicle: saline) was 106 % of control and the T/C (endpoint: mean survival time, dose: 32.0 mg/kg/injection, schedule: Q08DX002 (ip), vehicle: saline) was 112 % of control.
`NCCCCS(=O)(=O)Nc1ccc(Nc2c3ccccc3nc3cc([N+](=O)[O-])ccc23)cc1` was tested, and the T/C (endpoint: mean survival time, dose: 25.0 mg/kg/injection, schedule: Q01DX009 (ip), vehicle: saline) was 97 % of control and the T/C (endpoint: mean survival time, dose: 50.0 mg/kg/injection, schedule: Q01DX009 (ip), vehicle: saline) was 99 % of control.
In the case of `COC(=O)c1ccccc1N=NN(C)C`, the T/C (endpoint: median survival time, dose: 10.0 mg/kg/injection, schedule: Q01DX009 (ip), vehicle: saline with Tween-80) is reported as 114 % of control and the T/C (endpoint: median survival time, dose: 20.0 mg/kg/injection, schedule: Q01DX009 (ip), vehicle: saline with Tween-80) is reported as 97 % of control.
`Cc1c(C)c(NC(=O)N(CCCl)N=O)c(C)c(C)c1NC(=O)N(CCCl)N=O` was tested, and the T/C (endpoint: mean survival time, dose: 15.5 mg/kg/injection, schedule: Q01DX001 (ip), vehicle: other) was 102 % of control, the T/C (endpoint: mean survival time, dose: 31.0 mg/kg/injection, schedule: Q01DX001 (ip), vehicle: other) was 98 % of control and the T/C (endpoint: mean survival time, dose: 62.0 mg/kg/injection, schedule: Q01DX001 (ip), vehicle: other) was 101 % of control. The T/C (endpoint: mean survival time, dose: 250.0 mg/kg/injection, schedule: Q01DX001 (ip), vehicle: other) was 171 % of control and 175 % of control, the T/C (endpoint: mean survival time, dose: 375.0 mg/kg/injection, schedule: Q01DX001 (ip), vehicle: other) was 182 % of control and 183 % of control and the T/C (endpoint: mean survival time, dose: 500.0 mg/kg/injection, schedule: Q01DX001 (ip), vehicle: other) was 172 % of control and 178 % of control. For the same molecule, the T/C (endpoint: mean survival time, dose: 501.0 mg/kg/injection, schedule: Q01DX001 (ip), vehicle: other) was 93 % of control.
`O=NN(CCCl)C(=O)NC1Cc2ccccc2C1` was tested, and the T/C (endpoint: mean survival time, dose: 55.0 mg/kg/injection, schedule: Q01DX001 (ip), vehicle: other) was 116 % of control, the T/C (endpoint: mean survival time, dose: 84.0 mg/kg/injection, schedule: Q01DX001 (ip), vehicle: other) was 123 % of control and the T/C (endpoint: mean survival time, dose: 188.0 mg/kg/injection, schedule: Q01DX001 (ip), vehicle: other) was 94 % of control.
In the case of `O=NN(CCCl)C(=O)NC1CCS(=O)(=O)C1` (centres undefined) (tested in a mixture with another compound), the T/C (endpoint: mean survival time, dose: 14.0 mg/kg/injection, schedule: Q01DX001 (oral), vehicle: other) is reported as 172 % of control, the T/C (endpoint: mean survival time, dose: 16.0 mg/kg/injection, schedule: Q01DX001 (ip), vehicle: other) is reported as 156 % of control and the T/C (endpoint: mean survival time, dose: 22.0 mg/kg/injection, schedule: Q01DX001 (oral), vehicle: other) is reported as 217 % of control. For the same molecule, the T/C (endpoint: mean survival time, dose: 36.0 mg/kg/injection, schedule: Q01DX001 (ip), vehicle: other) was 121 % of control and the T/C (endpoint: mean survival time, dose: 48.0 mg/kg/injection, schedule: Q01DX001 (oral), vehicle: other) was 116 % of control.
With `COc1cc([C@@H]2c3cc4c(cc3[C@@H](OC3OC5COC(C)OC5C(O)C3O)[C@H]3COC(=O)[C@H]23)OCO4)cc(OC)c1O` (some centres undefined) the T/C (endpoint: mean survival time, dose: 2.0 mg/kg/injection, schedule: Q01DX009 (oral), vehicle: Klucel (hydroxypropylcellulose) (HPC)) was 108 % of control, the T/C (endpoint: mean survival time, dose: 4.0 mg/kg/injection, schedule: Q01DX009 (oral), vehicle: Klucel (hydroxypropylcellulose) (HPC)) was 118 % of control and the T/C (endpoint: mean survival time, dose: 12.0 mg/kg/injection, schedule: Q04DX003 (ip), vehicle: saline) was 109 % of control. For the same molecule, the T/C (endpoint: mean survival time, dose: 16.0 mg/kg/injection, schedule: Q01DX009 (oral), vehicle: Klucel (hydroxypropylcellulose) (HPC)) was 116 % of control, the T/C (endpoint: mean survival time, dose: 18.0 mg/kg/injection, schedule: Q04DX003 (ip), vehicle: saline) was 108 % of control and the T/C (endpoint: mean survival time, dose: 27.0 mg/kg/injection, schedule: Q04DX003 (ip), vehicle: saline) was 109 % of control. The T/C (endpoint: mean survival time, dose: 32.0 mg/kg/injection, schedule: Q01DX009 (oral), vehicle: Klucel (hydroxypropylcellulose) (HPC)) was 94 % of control, the T/C (endpoint: mean survival time, dose: 40.0 mg/kg/injection, schedule: Q04DX003 (ip), vehicle: saline) was 118 % of control and the T/C (endpoint: mean survival time, dose: 60.0 mg/kg/injection, schedule: Q04DX003 (ip), vehicle: saline) was 110 % of control.
`O=c1[nH]c(=O)n([C@H]2CCCO2)cc1F` was tested, and the T/C (endpoint: median survival time, dose: 23.0 mg/kg/injection, schedule: Q01DX009 (ip), vehicle: water) was 95 % of control, the T/C (endpoint: median survival time, dose: 39.0 mg/kg/injection, schedule: Q01DX009 (ip), vehicle: water) was 107 % of control and the T/C (endpoint: median survival time, dose: 65.0 mg/kg/injection, schedule: Q01DX009 (ip), vehicle: water) was 101 % of control. For the same molecule, the T/C (endpoint: median survival time, dose: 65.0 mg/kg/injection, schedule: Q04DX003 (ip), vehicle: water) was 97 % of control, the T/C (endpoint: median survival time, dose: 108.0 mg/kg/injection, schedule: Q04DX003 (ip), vehicle: water) was 99 % of control and the T/C (endpoint: median survival time, dose: 180.0 mg/kg/injection, schedule: Q01DX009 (ip), vehicle: water) was 97 % of control. The T/C (endpoint: median survival time, dose: 180.0 mg/kg/injection, schedule: Q04DX003 (ip), vehicle: water) was 111 % of control.
In the case of `O=NN(CCCl)C(=O)Nc1ccc(F)cc1`, the T/C (endpoint: mean survival time, dose: 11.0 mg/kg/injection, schedule: Q01DX001 (ip), vehicle: carboxymethylcellulose (CMC)) is reported as 109 % of control, the T/C (endpoint: mean survival time, dose: 16.6 mg/kg/injection, schedule: Q01DX001 (ip), vehicle: carboxymethylcellulose (CMC)) is reported as 112 % of control and the T/C (endpoint: mean survival time, dose: 25.0 mg/kg/injection, schedule: Q01DX001 (ip), vehicle: carboxymethylcellulose (CMC)) is reported as 109 % of control. The T/C (endpoint: mean survival time, dose: 37.5 mg/kg/injection, schedule: Q01DX001 (ip), vehicle: carboxymethylcellulose (CMC)) was 108 % of control.
